In US20040197859A1, “Isolated dna molecules encoding humanized calcitonin gene-related peptide receptor, related non-human transgenic animals and assay methods” (priority 2001, published 2004):

Tests used:
[1] = biological target: T1, rCRLR/Chimera 1 (Rattus norvegicus, UniProt Q63118+Q9JJ74, D29E/D31N/E46V/G64R/I36L/I51V/K45Q/K53E/K61R/P30A/Q37R/R28Q/R43Q/S42T/T34A/T50A/V24T); assay: competitive 125I-hCGRP binding, membranes expressing rCRLR with RAMP1 Chimera 1; design: species or system rat CRLR, human/rat chimeric RAMP1; details: Table 5; rCRLR/Chimera 1 (first 66 aa of rRAMP1 replaced with human)
T1 construct: expressed in transfected cells; host or cells: 293 EBNA cells, transient co-transfection, membranes
Source text: Two human/rat chimeric RAMP1 cDNAs were constructed by using restriction fragments of the corresponding native cDNAs. Chimera 1 was created by replacing the nucleotides coding for the first 66 amino acids of rRAMP1 with the corresponding nucleotides of hRAMP1 by using the BsgI restriction site along with a NheI site located in the cloning vector. Chimera 2 was created by replacing the nucleotides coding for the first 112 amino acids of rRAMP1 with the corresponding nucleotides of hRAMP1 by using the SanDI restriction site along with a NheI site located in the cloning vector. Cell Culture and DNA Transfection-293 EBNA cells were cultured in DMEM with 4.5 g/L glucose, 1 mM sodium pyruvate and 2 mM glutamine supplemented with 10% Fetal Bovine Serum (FBS), 100 units/mL penicillin and 100 μg/mL streptomycin, and maintained at 37° C. and 95% humidity. Cells were subcultured by treatment with 0.25% trypsin with 0.1% EDTA in HBSS. Twenty-four hours prior to transfection, the cells were seeded at 2.0×10^7/dish in 500 cm^2 dishes. The following day, the cells were re-fed with fresh growth medium 1 hour before transfection. Transfections were performed by combining 60 μg/dish DNA with 180 μg/dish Lipofectamine 2000 (Life Technologies). cDNA's for CRLR and RAMP1 in the mammalian expression vector pcDNA3.1 were co-transfected in equal amounts. […] Data were analyzed by using GraphPad Prism. […]

[2] = biological target: T2, rCRLR/hRAMP1 (UniProt O60894+Q63118); assay: competitive 125I-hCGRP binding, membranes expressing hybrid rCRLR/hRAMP1; design: species or system rat CRLR, human RAMP1; details: Table 4
T2 construct: expressed in transfected cells; host or cells: 293 EBNA cells, transient co-transfection, membranes
Protocol: (§1) Cell Culture and DNA Transfection—293 EBNA cells were cultured in DMEM with 4.5 g/L glucose, 1 mM sodium pyruvate and 2 mM glutamine supplemented with 10% Fetal Bovine Serum (FBS), 100 units/mL penicillin and 100 μg/mL streptomycin, and maintained at 37° C. and 95% humidity. Cells were subcultured by treatment with 0.25% trypsin with 0.1% EDTA in HBSS.
Twenty-four hours prior to transfection, the cells were seeded at 2.0×10^7/dish in 500 cm^2 dishes. The following day, the cells were re-fed with fresh growth medium 1 hour before transfection. Transfections were performed by combining 60 μg/dish DNA with 180 μg/dish Lipofectamine 2000 (Life Technologies). cDNA's for CRLR and RAMP1 in the mammalian expression vector pcDNA3.1 were co-transfected in equal amounts. The transfection cocktail was added directly to the medium and this mixture was replaced with fresh medium 24 hours later. The cells were harvested for membranes 48 hours post-transfection. […]
For binding assays, 1.5-25 μg of membranes (dependent upon receptor expression levels) were incubated for 3 hours at room temperature in binding buffer (10 mM HEPES, 5 mM MgCl2, 0.2% BSA) containing 10 pM ^125I-hCGRP (Amersham) in a total volume of 1 mL. […] Data were analyzed by using GraphPad Prism.

[3] = biological target: T3, mCRLR/mK74W RAMP1 (Mus musculus, UniProt Q9R1W5+Q9WTJ5, K74W); assay: competitive binding, membranes expressing mCRLR and mutant mK74W RAMP1; details: Table 7
T3 construct: The mouse RAMP1 expression vector construct was used as template; expressed in transfected cells
Protocol: as §1
(§2) Twenty-four hours prior to transfection, the cells were seeded at 2.0×10^7/dish in 500 cm^2 dishes. The following day, the cells were re-fed with fresh growth medium 1 hour before transfection. Transfections were performed by combining 60 μg/dish DNA with 180 μg/dish Lipofectamine 2000 (Life Technologies). cDNA's for CRLR and RAMP1 in the mammalian expression vector pcDNA3.1 were co-transfected in equal amounts. The transfection cocktail was added directly to the medium and this mixture was replaced with fresh medium 24 hours later. The cells were harvested for membranes 48 hours post-transfection.
(§3) Membrane Preparation and Radioligand Binding Studies—Transiently transfected 293 EBNA cells were washed once with PBS and harvested in harvest buffer containing 50 mM HEPES, 1 mM EDTA and Complete protease inhibitors (Roche).

[4] = biological target: T4, rCRLR/rK74W RAMP1 (Rattus norvegicus, UniProt Q63118+Q9JJ74, K74W); assay: competitive 125I-hCGRP binding, membranes expressing rCRLR and mutant rK74W RAMP1; details: Table 6
T4 construct: and the rRAMP1 expression vector construct as template; expressed in transfected cells; host or cells: 293 EBNA cells, transient co-transfection, membranes
Protocol: Rat RAMP1 site-directed mutagenesis was performed by using the Quick Change Site-directed Mutagenesis Kit (Stratagene) according to the manufacturer's instructions. […] of rRAMP1 was replaced with the corresponding human/marmoset amino acid tryptophan utilizing two complementary mutant oligonucleotide primers ([NT] ID NO:27] and [NT] ID NO:28]) and the rRAMP1 expression vector construct as template. This mutation was accomplished by substituting the codon TGG corresponding to tryptophan (r[…] RAMP1). All constructs were sequenced bidirectionally with 100% coverage in each direction. Cell Culture and DNA Transfection-293 EBNA cells were cultured in DMEM with 4.5 g/L glucose, 1 mM sodium pyruvate and 2 mM glutamine supplemented with 10% Fetal Bovine Serum (FBS), 100 units/mL penicillin and 100 μg/mL streptomycin, and maintained at 37° C. and 95% humidity. Cells were subcultured by treatment with 0.25% trypsin with 0.1% EDTA in HBSS. Twenty-four hours prior to transfection, the cells were seeded at 2.0×10^7/dish in 500 cm^2 dishes. The following day, the cells were re-fed with fresh growth medium 1 hour before transfection. Transfections were performed by combining 60 μg/dish DNA with 180 μg/dish Lipofectamine 2000 (Life Technologies). cDNA's for CRLR and RAMP1 in the mammalian expression vector pcDNA3.1 were co-transfected in equal amounts. […] Data were analyzed by using GraphPad Prism. […]

[5] = biological target: T5, mCRLR/mRAMP1 (native mouse receptor) (Mus musculus, UniProt Q9R1W5+Q9WTJ5); assay: competitive binding, membranes expressing mCRLR/mRAMP1; details: Table 7
T5 construct: expressed in transfected cells
Protocol: as §1, §2, §3

[6] = biological target: human CGRP receptor (Homo sapiens, UniProt O60894+Q16602); details: cited from earlier work
[7] = biological target: T6, rCRLR/rRAMP1 (native rat CGRP receptor) (Rattus norvegicus, UniProt Q63118+Q9JJ74); assay: competitive 125I-hCGRP binding, membranes expressing rCRLR/rRAMP1
T6 construct: expressed in transfected cells; host or cells: 293 EBNA cells, transient co-transfection, membranes
Protocol: as §1, §2, §3

[8] = biological target: rCRLR/rRAMP1 (rat) (UniProt Q63118); assay: competitive radioligand binding against 10 pM 125I-hCGRP, membranes of transfected 293 EBNA cells

Row | IC50 [8] | Compound | IC50 [1] | IC50 [2] | IC50 [3] | IC50 [4] | IC50 [5] | higher affinity for the human CGRP receptor than for the rat receptor ([6]; human vs rat, Doods et al.) | lower affinity for CGRP receptors from rat, rabbit, dog, and guinea pig ([6]; versus human CGRP receptor, Doods et al. 2000) | IC50 ([7]; Table 4) | IC50 ([7]; Table 6)
1 | – | NCCCC[C@H](NC(=O)[C@@H](Cc1cc(Br)c(O)c(Br)c1)NC(=O)N1CCC(N2Cc3ccccc3NC2=O)CC1)C(=O)N1CCN(c2ccncc2)CC1 [BIBN4096BS] | 4.8 nM | 0.41 nM | 0.1 nM | 0.08 nM | 8.5 nM | 200 fold | 200 fold | 6.9 nM | 5.5 nM
2 | 2 nM | CGRP8-37 (peptide) | – | – | – | – | – | – | – | – | –
